Laboratory results taken from a melting point compilation (Tetko et al.; mined from patent text by program, amines drawn as free bases though some values may be those of a salt).

| melting point [°C] | Structure (SMILES) |
| --- | --- |
| 154 | CNC[C@@H]1c2ccccc2Oc2ccc(Cl)cc2[C@H]1C(=O)O (relative stereo) |
| 105 to 106 | CC(C)n1c(=O)c2ccccc2n(SC(Cl)(Cl)Cl)c1=O |
| 223 to 225 | CCC(C(=O)C(C)C(O)C(C)CCc1c(N)cc(C)c(O)c1C(=O)O)C1OC(CC)(C2CCC(O)(CC)C(C)O2)CC1C (configuration not stated) |
| 129 to 130 | CCOC(=O)c1c(CN2CCCCC2)nc2cc(OC)c(OC)cc2c1-c1ccc(OC)cc1 |
| 130 to 132 | CN1CCN(C(=O)c2ccc([N+](=O)[O-])cc2[N+](=O)[O-])CC1 |
| 189 to 191 | O=C(Nc1cccc2c1C(=O)c1c-2n[nH]c1-c1ccc(C(=O)NN2CCCCC2)s1)NN1CCOCC1 |
| > 275 | C[C@H](C(=O)O)n1nc(O)c2[nH]c3cc(Cl)ccc3c(=O)c2c1=O |
| 120 | CC(C)(O)CNCCN(C1CCNCC1)S(=O)(=O)c1ccc(Nc2nccc(Nc3ccc(F)cc3)n2)cc1 |
| 90.5 to 91.5 | Cc1cc(C(=O)NCCc2ccccc2)n(C)n1 |
| 146 to 148 | Cc1cc(NS(=O)(=O)c2ccccc2)cc(C)c1SC[N+](=O)[O-] |
| 200 to 206 | Cc1ccc(S(=O)(=O)Nc2ccc(C#N)cc2C#N)cc1 |
| 216 to 218 | CN(C)c1ccc(NC(=O)CCC2(c3ccc(Cl)cc3)Nc3cccnc3N2)cc1 (configuration not stated) |
| 208 to 210 | CCCCc1nc2c(N)nc3c(c2n1CCNC(=O)c1cc(C(C)(C)C)c(O)c(C(C)(C)C)c1)NCCC3 |
| 166 to 167 | CCOC(CN1C(=O)C2=C(c3ccsc3)N(CC(OCC)OCC)C(=O)C2=C1c1ccsc1)OCC |
| 128 to 129 | CC1(C)Oc2cc(N)c([N+](=O)[O-])cc2O1 |
| 233 | CC(=O)OC1C(COC(=O)c2ccccc2)OC(n2cc(Cl)c(N)nc2=O)C1F (configuration not stated) |
| 212 to 213 | O=C(N[C@H](Cc1ccc(C(F)(F)F)c(F)c1)[C@@H](O)c1ccc(F)cc1)c1ccc(F)c2ccccc12 (racemic) |
| 97 to 101 | CC(C)(C)OC(=O)NC(Cc1c[nH]cn1)C(=O)N1CCCC1C(N)=O (configuration not stated) |
| 188 | CC(C)(C)c1cc(-c2nnc(SCC(=O)O)s2)cc(C(C)(C)C)c1O |
| 189 to 190 | CN(CCOc1ccc(C=C2SC(=O)NC2=O)cc1)c1ncccn1 |
| 225 to 230 | N=C(N)c1ccc2cc(OC(=O)C3CCC3)ccc2c1 |
| 139 to 142 | Nc1nc(Cl)nc(C2CC2)n1 |
| 205 to 207 | Cc1nc(-c2ccccc2)[nH]c(=O)c1C |
| 123 to 125 | Cc1cccnc1CCOc1ccc(NC(=O)N(C)C)cc1 |

| melting point [°C] | Structure (SMILES) |
| --- | --- |
| 96 to 98 | CCCCCCCCCCCc1nnc2n1-c1sc(CC)cc1C(c1ccc(O)cc1)OC2 (configuration not stated) |
| 265 to 266 | O=C(O)COc1ccc2c(c1)C[C@H](NC[C@H](O)c1cccc(Cl)c1)CCC2 |
| 145 | CC(=O)Oc1ccc(-c2c(C)c3ccc(OC(C)=O)cc3oc2=O)c(OC(C)=O)c1 |
| 295 to 297 | COc1cc2c(O)c(S(=O)(=O)N(C)C)cnc2cc1C |
| 192 to 194 | CC(=O)c1c[nH]cc1-c1cccc(Cl)c1Cl |
| 139 to 140 | Cc1cc(F)ccc1Nc1c(C(=O)C(C)C)cnc2c(CO)cccc12 |
| 74 to 76 | O=C(OCc1ccccc1)C(C(=O)OCc1ccccc1)n1cccc1C(=O)C(Cl)(Cl)Cl |
| 192 to 193 | C#CCNC(=O)c1cc(C(=O)OC)c(O)c2ncc(Cc3ccc(F)cc3)cc12 |
| 117 to 120 | COc1ccc2c(c1)C(=O)Cc1c(Cl)cccc1S2 |
| 112 to 114 | CO[C@@H]([C@H](OC)[C@H](O)COS(C)(=O)=O)[C@H](O)COS(C)(=O)=O |
| 247 to 249 | NC(=O)c1cnn2c(-c3cccc(F)c3)ccnc12 |
| > 260 | COc1cccc(OC)c1-c1cc(C(=O)NC2(C(=O)O)C3CC4CC(C3)CC2C4)nn1-c1cccc2ncccc12 (configuration not stated) |
| 283 to 286 | CN(C)CCN1C(=O)N2[C@H](c3cccc(O)c3)c3[nH]c4ccc(Cl)cc4c3C[C@@]2(C)C1=O (racemic) |
| 203 to 205 | COc1ccc(N2C(=O)NC(=O)C23CCCCC3)cc1 |
| 154 to 155 | Nc1ncc(Oc2ccc(Cl)cc2)c(N[C@H]2CC[C@H](O)CC2)n1 |
| 206 to 210 | Nc1nc2ccccc2c2c1ncn2CC1CCCCO1 (configuration not stated) |
| 163 to 165 | CCOC(=O)c1cc(S(N)(=O)=O)c(Cl)cc1NCc1ccco1 |
| 65 to 67 | CCCOc1nc2sc(Cl)cc2c(=NC(=O)OC)n1CCC |
| 119 to 120 | Cc1c(C)c2c(c(C)c1NC(=O)OC(C)(C)C)C(c1ccc(C(C)C)cc1)C(C)(C)O2 (configuration not stated) |
| 76 to 77 | COC(=O)CCC(=NO)c1ccccc1 |
| > 280 | Oc1ccc(-c2nnnc(-c3cccc4ccccc34)c2-c2ccc(O)cc2O)c(O)c1 |
| 114 to 116 | COc1ccc(C(C)(O)c2sc(C)nc2C)cc1 (configuration not stated) |
| 151 to 152 | CCCCCCCCOc1ccc(-c2ccc(NC(=O)N(O)C(CC)CC)cc2)cc1 |
| 117 to 118 | Cc1oc(-c2ccccc2)nc1COc1ccc(Cn2cc(C=O)c(-c3ccccc3)c2)cc1 |

| melting point [°C] | Structure (SMILES) |
| --- | --- |
| 121 to 123 | CC(C)Cc1ccc(C(C)C(=O)Oc2ccc(C(N)=S)cc2)cc1 (configuration not stated) |
| 130 to 132 | CCOC(=O)N(O)C(C)c1cc(C(C)(C)C)c(O)c(C(C)(C)C)c1 (configuration not stated) |
| 102 to 105 | COC(=O)Cc1cc(C(=O)c2ccccc2Cl)c(N)s1 |
| 256 to 258 | c1csc(-c2ccc3cc(-c4cccs4)ccc3c2)c1 |
| 94 to 97 | CC1CCN(C(=O)C(C)Oc2ccc(Oc3ccc(C(F)(F)F)cn3)cc2)O1 (configuration not stated) |
| 169 | CCCc1csc(NS(=O)(=O)c2cccc(Cl)c2C)n1 |
| 229 to 230 | COC(=O)c1[nH]c(=O)[nH]c(=O)c1[N+](=O)[O-] |
| 80 to 80.5 | COc1ccc(C#N)c(C)n1 |
| 38 to 39 | CCCCCCCCCCCCNc1ccc(OCC)cc1 |
| 107 to 110 | O=C(CBr)NCCC(=O)ON1C(=O)CCC1=O |
| 143 to 144 | CC(C)n1nc(-c2cnc(NCc3ccccn3)nc2-c2ccccc2)ccc1=O |
| 163 to 164 | CCCCNC(=O)NCCOc1ccc2c(ccn2Cc2ccc(Cl)cc2)c1 |
| 110 to 111 | COc1cc(-c2nc(N)sc2CCC2CCCCC2)c(OC)cc1Cl |
| 132 to 134 | Cc1cccc2c1NC(=O)C(CCCN1CCN(c3cccc(F)c3)CC1)S2 (configuration not stated) |
| 162 to 163 | Cc1ccc(CNCCOc2cccc3[nH]c(=O)[nH]c23)cc1 |
| 46 to 48 | CCOC(Cc1ccc(OCCN(C)c2nc3ccccc3o2)cc1)C(N)=S (configuration not stated) |
| 167 to 168 | Cc1nc(C)c(Cl)c(NCc2ccc(O)c(OC(F)F)c2)n1 |
| 129 to 130 | O=[N+]([O-])O[C@H]1COc2c(O)cccc2C1 |
| 93 to 95 | OCCOc1ccc2cccnc2c1 |
| 170 to 172 | Cc1ccnc(Cn2ccnc2)c1O |
| 188 | O=C(c1ccc2c(c1)CCO2)N1Cc2cccnc2Nc2ccccc21 |
| 149 to 151 | CCCc1nn(C)c2c(=O)[nH]c(Cc3ccc(N(CC)C(C)=O)cc3)nc12 |
| 234 to 236 | O=C(O)COC1=C(Cc2ccc3c(Br)cccc3c2)C(=O)CCC1 |

| Structure (SMILES) | melting point [°C] |
| --- | --- |
| O=C(CCN1CCC2(CC1)OC(=O)c1ccccc12)c1ccccc1 | 108 to 110 |
